{
  "source": "patent US20250041311A1",
  "about": "“Compound For Treating or Preventing Vimentin-Mediated Diseases” (Aluda Pharmaceuticals, Inc., priority 2021, published 2025)",
  "key": {"EAE mice": {"system": "EAE mice", "assay": "MOG-induced experimental autoimmune encephalomyelitis (EAE) mouse model", "assay_type": "in vivo", "settings": "FTY720 1 mg/kg, oral once a day, vs vehicle"}, "Huh7-NC12 cells [1]": {"system": "Huh7-NC12 cells", "assay": "PrestoBlue cell viability of liver cancer cells", "settings": "for cytotoxicity: 48 h, highest concentration 10,000 nM, high concentrations 3,160 and 10,000 nM; for toxicity to Huh7-NC12 cells: high concentrations (>3160 nM); for survival rate: after two days of treatment"}, "Huh7-NC12 cells [2]": {"system": "Huh7-NC12 cells", "assay": "Exosome release from liver cancer cells (luciferase exosome reporter, ExoHTP platform)", "assay_type": "cell-based", "settings": "48 h, luciferase activity of exosomes purified from supernatant"}, "GFAP": {"molecular_target": "T1, GFAP (Homo sapiens, UniProt P14136)", "T1 construct": "endogenous in cells; host or cells: U87 human glioma cells", "T1 sequence (P14136 whole entry)": "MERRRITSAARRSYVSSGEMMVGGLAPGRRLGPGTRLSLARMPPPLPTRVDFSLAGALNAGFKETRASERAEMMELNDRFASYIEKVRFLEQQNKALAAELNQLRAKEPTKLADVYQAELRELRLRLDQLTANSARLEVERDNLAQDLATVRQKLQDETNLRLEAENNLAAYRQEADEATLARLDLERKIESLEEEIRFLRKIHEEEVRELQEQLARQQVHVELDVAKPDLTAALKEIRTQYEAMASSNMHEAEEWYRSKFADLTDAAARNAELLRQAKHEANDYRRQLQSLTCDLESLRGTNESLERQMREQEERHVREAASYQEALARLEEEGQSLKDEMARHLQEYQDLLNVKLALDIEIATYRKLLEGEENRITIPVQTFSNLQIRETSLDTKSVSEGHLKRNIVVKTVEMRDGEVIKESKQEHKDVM", "assay": "Immunofluorescence microscopy of the GFAP network (specificity control)", "assay_type": "cell-based", "settings": "U87 glioma cells treated with C50"}, "vimentin [3]": {"molecular_target": "T2, vimentin (Homo sapiens, UniProt P08670)", "assay": "Immunofluorescence microscopy of the vimentin intermediate filament network", "assay_type": "cell-based", "set-up": "react with mouse anti-VIM antibody (Sigma, 1:200) at room temperature; endogenous in cells; host or cells: U87 human glioma cells", "settings": "U87 cells treated with C50 for 24 h, confocal immunofluorescence", "experimental": "(§1) Cell culture: Human cancer cell lines were obtained from the Institute of Cell Research, Chinese Academy of Sciences or ATCC. Cells were cultured in an incubator with 5% CO2 in RMPI1640 supplemented with 10% fetal bovine serum, 2 mM L-glutamine and 1× penicillin-streptomycin (100 IU/ml-100 μg/ml).\nImmunofluorescence microscopy: Cells were cultured in 4-well coverslips, treated with DMSO or C50 for 24 h, fixed with 2% paraformaldehyde at 37° C. for 15 minutes, permeabilized in 0.2% Triton X-100 PBS at room temperature Wash for 15 min, wash 3 times with 0.05% Triton X-100 TBS, block with 10% normal goat serum in 0.05% Triton X-100 TBS, then react with mouse anti-VIM antibody (Sigma, 1:200) at room temperature Incubate for 3 h. Cells were washed 3 times with 0.05% Triton X-100 in PBS, and then incubated with Cy TM3-conjugated anti-mouse IgG antibody (Jackson, 1:300) for 1 h at room temperature. Nuclei were stained with DAPI for 5-10 min. Immunofluorescence was observed using a FV1000 (Olympus) confocal microscope."}, "vimentin [4]": {"molecular_target": "T2, vimentin", "assay": "Fluorescence recovery after photobleaching (FRAP) of GFP-vimentin in U87 cells", "assay_type": "cell-based", "set-up": "expressed in transfected cells; host or cells: U87 human glioma cells, transient transfection", "settings": "cells treated with C50 for 24 h, vs DMSO", "experimental": "as §1\nFluorescence recovery after photobleaching (FRAP): Cells were cultured on 4-well coverslips and transiently transfected with pEGFP-Vim expression vector using Lipofectamine 2000 (Invitrogen) following the manufacturer's instructions. Twenty-four h after transfection, cells were treated with DMSO or C50 for 24 h. FRAP experiments were performed using a confocal microscope system (Fluoview 1,000; Olympus). For photobleaching, the region of interest (ROI) was irradiated with 60% laser power (488 nm) for 2 s. Images were taken every 30 s for 5 min to monitor fluorescence recovery. Fluorescence intensities were corrected for sample background at each time point. After data collection, the fluorescence intensity of ROI was extracted by ImageJ software."}},
  "note": "Entries after “also recorded” stand apart in the source; their conditions may differ.",
  "data": [
    {"smiles": "CCCCCCCCc1ccc(CCC(N)(CO)CO)cc1", "note": "[FTY720, reference compound]", "values": [
      {"measurement": "animal weight loss", "setting": "EAE mice", "result": "reduced"},
      {"measurement": "clinical disease scores", "setting": "EAE mice", "result": "improved"}
    ]},
    {"smiles": "O=C(Nc1ccc(Nc2nc(/C=C/c3ccccc3)nc(N3CCOCC3)n2)cc1)Nc1ccnc(Cl)c1", "note": "[Compound C52M]", "values": [
      {"measurement": "cytotoxicity", "setting": "Huh7-NC12 cells [1]", "result": "cytotoxic"},
      {"measurement": "toxicity to Huh7-NC12 cells", "setting": "Huh7-NC12 cells [1]", "result": "cytotoxic"},
      {"measurement": "inhibition of exosome release", "setting": "Huh7-NC12 cells [2]", "result": "effectively inhibit the release of exosomes"}
    ]},
    {"smiles": "O=C(Nc1ccc(F)cc1)Nc1ccc(Nc2nc(/C=C/c3ccc(Cl)cc3)nc(N3CCOCC3)n2)cc1", "note": "[Compound C45]", "values": [
      {"measurement": "cytotoxicity", "setting": "Huh7-NC12 cells [1]", "result": "not cytotoxic"},
      {"measurement": "survival rate", "setting": "Huh7-NC12 cells [1]", "result": "about 90%"},
      {"measurement": "toxicity to Huh7-NC12 cells", "setting": "Huh7-NC12 cells [1]", "result": "not toxic"},
      {"measurement": "inhibition of exosome release", "setting": "Huh7-NC12 cells [2]", "result": "stronger inhibitory effects than GW4869; also recorded: effectively inhibit the release of exosomes"}
    ]},
    {"smiles": "CN1CCN(C(=O)c2ccc(NC(=O)Nc3ccc(Nc4nc(/C=C/c5ccccc5)nc(N5CCOCC5)n4)cc3)cc2)CC1", "note": "[Compound C69B]", "values": [
      {"measurement": "cytotoxicity", "setting": "Huh7-NC12 cells [1]", "result": "cytotoxic"},
      {"measurement": "toxicity to Huh7-NC12 cells", "setting": "Huh7-NC12 cells [1]", "result": "cytotoxic"},
      {"measurement": "inhibition of exosome release", "setting": "Huh7-NC12 cells [2]", "result": "effectively inhibit the release of exosomes"}
    ]},
    {"smiles": "O=C(/C=C/c1ccc(/C=C/C(=O)Nc2ccc(C3=NCCN3)cc2)cc1)Nc1ccc(C2=NCCN2)cc1", "note": "[GW4869, reference compound]", "values": [
      {"measurement": "cytotoxicity", "setting": "Huh7-NC12 cells [1]", "result": "not cytotoxic"},
      {"measurement": "survival rate", "setting": "Huh7-NC12 cells [1]", "result": "about 90%"}
    ]},
    {"smiles": "O=C(Nc1ccc(Cl)cc1)Nc1ccc(Nc2nc(/C=C/c3ccccc3)nc(N3CCOCC3)n2)cc1", "note": "[Compound C50]", "values": [
      {"measurement": "structural changes of GFAP intermediate filament protein", "setting": "GFAP", "result": "no structural changes"},
      {"measurement": "reorganization of the vimentin network", "setting": "vimentin [3]", "result": "significant reorganization of the vimentin network"},
      {"measurement": "time required to recover fluorescence in the photobleached region", "setting": "vimentin [4]", "result": "significantly delayed"}
    ]},
    {"smiles": "O=C(Nc1ccc(Nc2nc(/C=C/c3ccccc3)nc(N3CCOCC3)n2)cc1)Nc1ccc(C(=O)O)cc1", "note": "[Compound C69A]", "values": [
      {"measurement": "cytotoxicity", "setting": "Huh7-NC12 cells [1]", "result": "not cytotoxic"},
      {"measurement": "survival rate", "setting": "Huh7-NC12 cells [1]", "result": "about 90%"},
      {"measurement": "toxicity to Huh7-NC12 cells", "setting": "Huh7-NC12 cells [1]", "result": "not toxic"},
      {"measurement": "inhibition of exosome release", "setting": "Huh7-NC12 cells [2]", "result": "stronger inhibitory effects than GW4869; also recorded: effectively inhibit the release of exosomes"}
    ]}
  ]
}
